Measurements: patent US10463664B2, “Inhibitors of HSV nucleotidyl transferases and uses therefor” (Saint Louis University, priority 2013, dated 2019)
Blank lines part the entries; values can stand above or below the compound they belong to.

Columns and labels:
[1] = tested on: HSV-1; assay: Anti-HSV-1 replication assay in Vero cells, titer by plaque assay; format: cell-based, herpes simplex virus 1; conditions: for Anti-HSV-1 Log10 suppression 5 μM (screening symbol) / Anti-HSV-1 Log10 suppression 50 μM (screening symbol): visual inspection; for Anti-HSV-1 Log10 suppression 5 μM / Anti-HSV-1 Log10 suppression 50 μM: moi 0.1, 24 h, relative to DMSO; for Inhibition of HSV-1 replication (in words): primary screening
Method: (§1) Anti-HSV-1 and -HSV-2 Replication Assay. Compounds to be screened were diluted in PBS supplemented to contain 2% newborn calf serum and 1% glutamine, and added in 100 μL, volume to confluent cell monolayers in 24-well cluster plates. Immediately thereafter HSV-1 and HSV-2, diluted in the supplemented PBS medium, were added to the wells in 50 μl volume such that the final concentration of compound was 50 μM and 5 μM and the multiplicity of infection was 0.1. The plates were incubated at 37° C. for 1 hour and then virus-containing inoculum was removed and the wells were washed once in PBS. Compounds, diluted to 50 μM and 5 μM in DMEM supplemented to contain 2% newborn calf serum and 1% each penicillin/streptomycin, were added at 0.5 mL/well. Plates were incubated at 37° C. an additional 23 hr, and then the plates were visually inspected through a phase contrast microscope for cytopathic effect, and for toxic effect. […] The entire contents of each well were collected by scraping. Samples were frozen at −80° C., and then subsequently thawed, sonicated, and infectious virus titer was determined by standard plaque assay on Vero cell monolayers. Because the compounds were dissolved at 10 mM in 100% DMSO, equivalent dilutions of DMSO were added to additional wells as a control for effects of the diluent. Each experiment was repeated once. EC50 values were determined as above except that serial dilutions of the compound to be tested were prepared starting at 50 μM. The inhibitory values were calculated by non-linear curve-fitting in GraphPad Prism.
(§2) Monolayers were microscopically inspected 24 hours post-infection and wells in which more cells were visually healthier than the DMSO-treated controls were collected. Viral titers in the culture lysates were then determined by standard plaque assay on Vero cells. Inhibition of viral replication was categorized as <1 log10 relative to the DMSO-treated control, 1 to 3 log10 suppression, or ≥3 log10 suppression. […] Additionally, four polyoxygenated heterocycle compounds were tested (#128, 138, 139, 140).

[2] = target: T1, human RNaseH1 (Homo sapiens, UniProt O60930); assay: Biochemical inhibition of human RNaseH1 (oligonucleotide-directed RNA cleavage assay); conditions: compounds at 60, 20 or 10 μM
T1 construct: hexahistidine; made in house; host or cells: E. coli
T1 sequence (O60930 1-286): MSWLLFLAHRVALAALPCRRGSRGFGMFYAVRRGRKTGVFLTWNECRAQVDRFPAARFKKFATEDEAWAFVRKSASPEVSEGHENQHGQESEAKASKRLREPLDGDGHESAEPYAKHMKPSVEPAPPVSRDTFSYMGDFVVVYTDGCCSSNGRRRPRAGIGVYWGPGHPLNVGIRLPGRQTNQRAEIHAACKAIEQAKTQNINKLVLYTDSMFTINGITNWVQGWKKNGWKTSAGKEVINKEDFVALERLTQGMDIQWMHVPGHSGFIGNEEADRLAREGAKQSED
Method: (§3) Biochemical inhibition of HBV RNaseH and human RNaseH1 activity. […] RNaseH activity was measured using an oligonucleotide-directed RNA cleavage assay in which a DNA oligonucleotide is annealed to an internally ^32P-labeled RNA, the RNA:DNA heteroduplex is incubated with the enzyme to permit cleavage, and then the RNA cleavage products are resolved by electrophoresis and detected by autoradiography. The compounds were included in the reaction mixes at 60, 20, or 10 μM and the amount of the RNA cleavage products in the compound-containing reactions was compared to reactions in which an equivalent concentration of DMSO was added as a vehicle control. The data were quantified using ImageJ.

[3] = tested on: HSV-2; assay: Anti-HSV-2 replication assay in Vero cells, titer by plaque assay; format: cell-based, herpes simplex virus 2; conditions: for Anti-HSV-2 Log10 suppression 5 μM (screening symbol) / Anti-HSV-2 Log10 suppression 50 μM (screening symbol): visual inspection; for Anti-HSV-2 Log10 suppression 5 μM / Anti-HSV-2 Log10 suppression 50 μM: moi 0.1, 24 h, relative to DMSO; for Inhibition of HSV-2 replication (in words): primary screening
Method: as §1, §2

[4] = target: T2, HBV RNaseH (Hepatitis B virus genotype A2 subtype adw2, UniProt P03159); assay: Biochemical inhibition of HBV RNaseH (oligonucleotide-directed RNA cleavage assay); conditions: compounds at 60, 20 or 10 μM
T2 construct: One of the inventors recently produced active recombinant HBV RNase H; hexahistidine; made in house; host or cells: E. coli
T2 sequence (P03159 693-845): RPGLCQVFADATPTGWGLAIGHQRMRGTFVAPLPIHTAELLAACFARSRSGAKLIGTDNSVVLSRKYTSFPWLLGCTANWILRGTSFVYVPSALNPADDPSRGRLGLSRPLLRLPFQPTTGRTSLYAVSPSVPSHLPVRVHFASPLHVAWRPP
Method: as §3

[5] = tested on: Vero cells; assay: Qualitative (visual) cytotoxicity assessment in primary screening; format: cell-based; design: key to Vero cell toxicity Qualitative: T: visual evidence of toxicity at 50 μM; conditions: for Vero cell toxicity Qualitative: visual, 50 μM
Method: Compound Cytotoxicity. Compound cytotoxicity was measured both subjectively and quantitatively. Subjective assessments were done by visually inspecting the infected cells at the end of the 24 hours infection window through a phase-contrast microscope.

[6] = tested on: HSV-2; assay: HSV-2 replication inhibition in primary human foreskin fibroblasts; format: cell-based, herpes simplex virus 2; design: key to Replication inhibition HSV-2 50 μM (not quantified): NQ: Not quantified due to visible toxicity; conditions: HFF cells
Method: as §1
(§4) Inhibition of viral replication was next assessed in human foreskin fibroblasts (HFF) to determine whether NTS inhibitors could block HSV-1 and HSV-2 replication in a physiologically relevant, primary human cell type. […] Viral yields 24 hours post-infection were measured by plaque assay.

[7] = tested on: primary human foreskin fibroblasts; assay: in vitro
Method: Toxicity Assays. Qualitative assessments of cytotoxicity were done visually by inspecting the cells in the primary screening assays. For the quantitative assays, cells were plated in 96-well plates at 1.0×10^4 per well. The next day the compounds were added at 0.78 to 100 μM in a final concentration of 1% (v/v) DMSO, and the cells were incubated for 24 hours under conditions identical to those employed for the viral replication inhibition assays. Mitochondrial toxicity was measured by incubating the cells with 0.25 mg/mL thiazolyl blue tetrazolium bromide (MTT, SigmaAldrich Chemical Co.), the cultures were incubated for 60 min, metabolites were solubilized in acidic isopropanol, and absorbance was read at 570 nm. Cellular lysis was measured by detecting release of intracellular proteases with the CytoTox-Glo assay (Promega) according to the manufacturer's instructions. Percent viability was determined for each compound concentration from the maximal absorbance or luminosity data, and then CC50 values were calculated by non-linear curve fitting using GraphPad Prism.
as §4

[8] = tested on: HSV-1; assay: HSV-1 replication inhibition in primary human foreskin fibroblasts; format: cell-based, herpes simplex virus 1; design: key to Replication inhibition HSV-1 50 μM (not quantified): NQ: Not quantified due to visible toxicity; conditions: HFF cells
Method: as §1, §4

[9] = relative to DMSO-treated control
[10] = 50 μM, relative to DMSO-treated control

SMILES: COc1cc2c(cc1Cc1cccc(Cl)c1F)c(=O)c(C(=O)O)cn2[C@H](CO)C(C)C [Compound 10, Elvitegravir, reference compound]
Anti-HSV-1 Log10 suppression 5 μM (screening symbol) [1]: −
Anti-HSV-1 Log10 suppression 50 μM (screening symbol) [1]: −
Anti-Human RNaseH1 [2]: − (no inhibition at 60 μM)
Anti-HSV-2 Log10 suppression 5 μM (screening symbol) [3]: −
Anti-HSV-2 Log10 suppression 50 μM (screening symbol) [3]: −
Anti-HBV RNaseH [4]: − (no inhibition at 60 μM)
Vero cell toxicity Qualitative [5]: T

SMILES: CC(C)c1cccc(O)c(=O)c1 [Compound 47, Beta-thujaplicin]
Anti-HSV-1 Log10 suppression 5 μM [1]: 0.31 log10
Anti-HSV-1 Log10 suppression 50 μM [1]: 1.86 log10
Inhibition of HSV-1 replication (in words) [1]: negligible inhibitors
Anti-Human RNaseH1 [2]: − (no inhibition at 60 μM)
Replication inhibition HSV-2 5 μM [6, 9]: 0.08 log10
Replication inhibition HSV-2 50 μM [6, 10]: 5.16 log10
Anti-HSV-2 Log10 suppression 5 μM [3]: 0.22 log10
Anti-HSV-2 Log10 suppression 50 μM [3]: 1.38 log10
Inhibition of HSV-2 replication (in words) [3]: negligible inhibitors
Anti-HBV RNaseH [4]: − (no inhibition at 60 μM)
CC50 ([7]; read-out: Toxicity, CC50 by MTT assay, HFF cells, 24 h): > 100 µM
Replication inhibition HSV-1 5 μM [8, 9]: 0.02 log10
Replication inhibition HSV-1 50 μM [8, 10]: 5.06 log10

SMILES: O=c1cc(NCc2ccccc2)c2cccnc2n1O [Compound 151]
Anti-HSV-1 Log10 suppression 5 μM [1]: 2.16 log10
Anti-HSV-1 Log10 suppression 5 μM ([1]; listed as #151): > 2.15 log10
Anti-HSV-2 Log10 suppression 5 μM [3]: 2.26 log10
Anti-HSV-2 Log10 suppression 5 μM ([3]; listed as #151): > 2.15 log10
Cytotoxicity at 50 μM (in words) [5]: significant cytotoxicity
Vero cell toxicity Qualitative [5]: T

SMILES: O=c1cc(NC2CCc3ccccc32)c2cccnc2n1O (stereo not drawn) [Compound 155]
Anti-HSV-1 Log10 suppression 5 μM [1]: 3.85 log10
Anti-HSV-1 Log10 suppression 5 μM ([1]; listed as #155): > 3.84 log10
Anti-HSV-2 Log10 suppression 5 μM [3]: 3.88 log10
Anti-HSV-2 Log10 suppression 5 μM ([3]; listed as #155): > 3.84 log10
Cytotoxicity at 50 μM (in words) [5]: significant cytotoxicity
Vero cell toxicity Qualitative [5]: T

Further lines, with some results ahead:

Anti-Human RNaseH1 [2]: − (no inhibition at 60 μM)
Anti-HBV RNaseH [4]: − (no inhibition at 60 μM)
SMILES: O=Nc1ccc(O)c(=O)cc1 [Compound 50, 5-nitrosotropolone]
Replication inhibition HSV-2 5 μM [6, 9]: 2.88 log10
Replication inhibition HSV-2 50 μM (not quantified) ([6]; 50 μM): NQ
Anti-HSV-2 Log10 suppression 50 μM (screening symbol) [3]: +
CC50 [7]: 40.4 µM
Toxicity in HFF cells (in words) [7]: some toxicity
Vero cell toxicity Qualitative [5]: T
Replication inhibition HSV-1 5 μM [8, 9]: 2.92 log10
Replication inhibition HSV-1 50 μM (not quantified) ([8]; 50 μM): NQ^4

Anti-Human RNaseH1 [2]: − (no inhibition at 60 μM)
Anti-HBV RNaseH [4]: − (no inhibition at 60 μM)
SMILES: O=C(Nc1ccc(O)c(=O)cc1)c1ccccc1 [Compound 52]
Anti-HSV-1 Log10 suppression 5 μM [1]: 0.07 log10
Anti-HSV-1 Log10 suppression 50 μM [1]: 2.02 log10
Inhibition of HSV-1 replication (in words) [1]: negligible inhibitors
Replication inhibition HSV-2 5 μM [6, 9]: −0.01 log10
Replication inhibition HSV-2 50 μM (not quantified) ([6]; 50 μM): NQ
Anti-HSV-2 Log10 suppression 5 μM [3]: 0.10 log10
Anti-HSV-2 Log10 suppression 50 μM [3]: 1.34 log10
Inhibition of HSV-2 replication (in words) [3]: negligible inhibitors
CC50 [7]: > 100 µM
Replication inhibition HSV-1 5 μM [8, 9]: 0.10 log10
Replication inhibition HSV-1 50 μM (not quantified) ([8]; 50 μM): NQ

Anti-HBV RNaseH [4]: − (no inhibition at 60 μM)
SMILES: CCOC(=O)c1sc(NC(=O)CSc2nccc(C)n2)c(C#N)c1C [Compound 27]
Anti-HSV-1 Log10 suppression 5 μM (screening symbol) [1]: −
Anti-HSV-1 Log10 suppression 50 μM (screening symbol) [1]: −
Anti-HSV-2 Log10 suppression 5 μM (screening symbol) [3]: −
Anti-HSV-2 Log10 suppression 50 μM (screening symbol) [3]: −
Vero cell toxicity Qualitative [5]: T

Anti-Human RNaseH1 [2]: ++ (inhibition at 20 μM)
Anti-HBV RNaseH [4]: − (no inhibition at 60 μM)
SMILES: Cc1ccc(S(=O)(=O)Oc2cccccc2=O)cc1 [Compound 61]
Anti-HSV-1 Log10 suppression 5 μM [1]: 0.15 log10
Inhibition of HSV-1 replication (in words) [1]: negligible inhibitors
Replication inhibition HSV-2 5 μM [6, 9]: −0.05 log10
Replication inhibition HSV-2 50 μM (not quantified) ([6]; 50 μM): NQ
Anti-HSV-2 Log10 suppression 5 μM [3]: 0.23 log10
Anti-HSV-2 Log10 suppression 50 μM (screening symbol) [3]: −
Inhibition of HSV-2 replication (in words) [3]: negligible inhibitors
CC50 [7]: 27.8 µM
Toxicity in HFF cells (in words) [7]: some toxicity
Vero cell toxicity Qualitative [5]: T
Replication inhibition HSV-1 5 μM [8, 9]: −0.17 log10
Replication inhibition HSV-1 50 μM (not quantified) ([8]; 50 μM): NQ
